{"source": "paper PMC7567334", "about": "(Environmental Health Perspectives, 2020)", "key": {"AR": {"biological_target": "T1, AR (Rattus norvegicus, UniProt P15207)", "T1 construct": "purchased Invitrogen", "T1 sequence (P15207 651-902 limits assumed)": "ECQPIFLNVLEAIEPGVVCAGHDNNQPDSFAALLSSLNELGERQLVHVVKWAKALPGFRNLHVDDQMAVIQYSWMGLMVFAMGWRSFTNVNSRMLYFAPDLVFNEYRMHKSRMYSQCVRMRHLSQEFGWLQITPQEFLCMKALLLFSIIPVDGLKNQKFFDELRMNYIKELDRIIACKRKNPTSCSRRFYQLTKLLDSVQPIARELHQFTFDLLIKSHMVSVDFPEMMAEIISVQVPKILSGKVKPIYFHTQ", "test": "PolarScreen AR Competitor binding affinity assay", "settings": "in words; tested up to 10 μM"}, "GR": {"biological_target": "T2, GR (Homo sapiens, UniProt P04150)", "T2 sequence (P04150 1-777)": "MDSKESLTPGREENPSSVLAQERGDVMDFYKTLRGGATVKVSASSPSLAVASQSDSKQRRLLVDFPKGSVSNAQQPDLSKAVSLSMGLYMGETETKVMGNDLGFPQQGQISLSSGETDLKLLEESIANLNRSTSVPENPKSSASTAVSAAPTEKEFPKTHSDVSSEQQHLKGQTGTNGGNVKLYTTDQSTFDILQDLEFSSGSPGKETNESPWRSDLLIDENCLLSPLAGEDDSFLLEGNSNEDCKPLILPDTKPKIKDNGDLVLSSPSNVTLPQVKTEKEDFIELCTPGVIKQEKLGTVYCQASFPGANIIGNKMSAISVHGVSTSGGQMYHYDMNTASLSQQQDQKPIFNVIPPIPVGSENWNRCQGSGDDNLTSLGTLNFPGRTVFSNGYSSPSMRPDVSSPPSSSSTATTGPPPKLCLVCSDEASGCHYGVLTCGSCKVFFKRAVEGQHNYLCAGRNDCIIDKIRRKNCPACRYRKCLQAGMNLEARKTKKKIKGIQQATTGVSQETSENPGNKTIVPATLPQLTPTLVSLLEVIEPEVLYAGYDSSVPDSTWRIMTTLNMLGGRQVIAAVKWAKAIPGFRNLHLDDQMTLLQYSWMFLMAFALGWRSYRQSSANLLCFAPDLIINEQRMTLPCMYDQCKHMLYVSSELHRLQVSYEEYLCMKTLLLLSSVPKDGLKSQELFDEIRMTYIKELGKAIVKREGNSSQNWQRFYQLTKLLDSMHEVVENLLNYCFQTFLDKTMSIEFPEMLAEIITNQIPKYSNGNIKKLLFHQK", "test": "MDA-kb2 GR reporter assay, agonist setup (with FLU)", "format": "cell-based", "set-up": "constitutively expressed high levels of functional GR and AR; host or cells: MDA-kb2", "settings": "MDA-kb2"}, "human (h)AR": {"biological_target": "T3, human (h)AR (Homo sapiens, UniProt P10275)", "T3 sequence (P10275 1-920)": "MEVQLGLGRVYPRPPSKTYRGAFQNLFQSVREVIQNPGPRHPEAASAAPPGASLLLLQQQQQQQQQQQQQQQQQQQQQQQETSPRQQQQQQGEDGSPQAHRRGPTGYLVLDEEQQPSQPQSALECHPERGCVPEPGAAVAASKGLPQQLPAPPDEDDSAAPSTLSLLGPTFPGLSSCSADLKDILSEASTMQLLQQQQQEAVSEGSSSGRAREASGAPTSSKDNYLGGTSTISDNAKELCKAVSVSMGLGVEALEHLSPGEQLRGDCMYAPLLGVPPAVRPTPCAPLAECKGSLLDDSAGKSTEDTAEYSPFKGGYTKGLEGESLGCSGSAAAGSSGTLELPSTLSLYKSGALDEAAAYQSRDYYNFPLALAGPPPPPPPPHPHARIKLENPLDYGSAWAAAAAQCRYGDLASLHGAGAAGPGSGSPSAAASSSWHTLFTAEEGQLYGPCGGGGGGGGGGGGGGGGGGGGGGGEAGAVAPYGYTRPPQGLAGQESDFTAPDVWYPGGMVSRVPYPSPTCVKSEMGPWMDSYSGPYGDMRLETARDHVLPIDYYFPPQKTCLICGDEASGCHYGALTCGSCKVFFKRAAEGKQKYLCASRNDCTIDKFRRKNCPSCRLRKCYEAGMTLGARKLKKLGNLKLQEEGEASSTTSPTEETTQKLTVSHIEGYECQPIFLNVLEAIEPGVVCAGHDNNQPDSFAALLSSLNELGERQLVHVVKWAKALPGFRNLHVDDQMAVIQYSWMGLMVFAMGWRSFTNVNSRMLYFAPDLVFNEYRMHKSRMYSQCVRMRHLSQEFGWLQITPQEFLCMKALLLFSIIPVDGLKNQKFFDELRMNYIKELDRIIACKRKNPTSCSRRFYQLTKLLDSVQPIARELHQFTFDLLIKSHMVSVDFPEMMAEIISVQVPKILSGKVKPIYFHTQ", "test": "AR-EcoScreen hAR transcriptional activation assay, agonist setup", "format": "cell-based"}, "hERα-HeLa-9903 cells": {"test_system": "hERα-HeLa-9903 cells", "test": "Cell viability (resazurin) in hERα-HeLa-9903 cells"}, "recombinant AR": {"test_system": "recombinant AR", "settings": "ref Chen et al. 2008; cited from earlier work"}, "human (h) ERα": {"biological_target": "T4, human (h) ERα (Homo sapiens, UniProt P03372)", "T4 sequence (P03372 1-595)": "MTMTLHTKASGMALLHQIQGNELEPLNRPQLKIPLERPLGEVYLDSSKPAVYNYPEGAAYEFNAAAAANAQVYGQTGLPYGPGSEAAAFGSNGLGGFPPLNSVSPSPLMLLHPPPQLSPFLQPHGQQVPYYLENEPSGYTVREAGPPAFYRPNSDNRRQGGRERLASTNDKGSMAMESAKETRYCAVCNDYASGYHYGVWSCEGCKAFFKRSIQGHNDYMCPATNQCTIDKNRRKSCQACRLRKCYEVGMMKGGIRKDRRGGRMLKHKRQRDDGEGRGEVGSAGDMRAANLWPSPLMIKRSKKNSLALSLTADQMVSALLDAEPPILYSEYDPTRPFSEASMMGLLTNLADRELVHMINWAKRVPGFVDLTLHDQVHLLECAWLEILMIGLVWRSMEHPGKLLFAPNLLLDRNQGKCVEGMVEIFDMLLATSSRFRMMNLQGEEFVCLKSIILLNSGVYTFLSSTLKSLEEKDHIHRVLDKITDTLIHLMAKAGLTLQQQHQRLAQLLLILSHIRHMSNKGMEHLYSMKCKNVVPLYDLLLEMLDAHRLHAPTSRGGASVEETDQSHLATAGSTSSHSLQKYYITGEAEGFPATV", "settings": "test for false positivity"}}, "note": "“Also recorded” adds a separate entry of the source."}
{"smiles": "O=C(Nc1ccc(Cl)cc1)Nc1ccc(Cl)c(Cl)c1", "note": "[Triclocarban, 1-(4-Chlorophenyl)-3-(3,4-dichlorophenyl) urea]", "values": [{"measurement": "binding affinity assay on isolated AR, result", "setting": "AR", "value": "did not show binding; also recorded: No binding; also recorded: negative"}, {"measurement": "GR agonist activity", "setting": "GR", "value": "no GR agonist activity"}, {"measurement": "higher AR RTA than vehicle control", "setting": "human (h)AR; 1 μM, vs 0.1% DMSO", "value": 40.4, "unit": "%"}, {"measurement": "higher AR RTA over vehicle control", "setting": "human (h)AR; 2.5 μM, vs 0.1% DMSO", "value": 30.3, "unit": "%"}, {"measurement": "AR agonist activity, call", "setting": "human (h)AR; AR-EcoScreen", "value": "Agonist"}, {"measurement": "concentration with AR agonist activity", "setting": "human (h)AR; AR-EcoScreen", "value": "1 to 2.5", "unit": "µM"}, {"measurement": "highest noncytotoxic concentration", "setting": "hERα-HeLa-9903 cells; hERα-HeLa-9903", "value": 5, "unit": "µM"}, {"measurement": "highest tested concentration as limited by precipitation and cytotoxicity", "setting": "hERα-HeLa-9903 cells; hERα-HeLa-9903, ERα agonist dose-response", "value": 5, "unit": "µM"}, {"measurement": "binding to recombinant AR", "setting": "recombinant AR", "value": "Negative for recombinant AR ([Chen et al. 2008])"}, {"measurement": "estrogenic effect in presence of ER antagonist 10 μM hydroxytamoxifen", "setting": "human (h) ERα", "value": "blocked all"}]}
